We go through 9 compounds from patent US20170304460A1, “METHOD OF CONJUGATING A POLYPEPTIDE” (MedImmune, LLC, priority 2014, published 2017).

For series [1] the following is noted: cited from earlier work.
The conditions of series [2]: pH 7.0; cited from earlier work.
For series [3] the following is noted: pH 7.0; cited from earlier work. The source holds these as a separate data set.
The subject of the next series is T289C mAb. In words: Conjugation kinetics of x-maleimide-PEG-biotins with T289C mAb. Type of series: physicochemical. Particulars: for Second order rate constant (k2): conjugation to T289C mAb. How it is done: x-Maleimide-PEG-biotins were conjugated to mAb (comprising a T289C mutation of the Fc) in several steps. […] Reduced mAb was transferred to a slide-a-lizer dialysis cassette (10K MWCO) and dialyzed against PBS, 1 mM EDTA, pH 7.2-7.8, 4° C. for 24 hr with several buffer changes. Reduced mAb was oxidized to reform internal disulfides by addition of dehydroascorbic acid (21 μL of 50 mM stock in DMSO, 1.1 μmol, 20 eq) followed by gentle mixing for 4 hr at room temperature. Oxidized mAb solution was adjusted to the desired pH by addition of 1M sodium phosphate (monobasic for pH 5.5, dibasic for pH 8.6, or a stock adjusted to pH 7.4) to a final phosphate concentration of 100 mM and mAb concentration of 1.3 mg/mL. Next, 1.15 mL of mAb solution (1.5 mg, 10 nmol, 1 eq) was aliquoted into a vial followed by addition of x-maleimide-PEG-biotin stock solution (2 μL of a 10 mM stock solution in DMAc, 20 nmol, 2 eq). The reaction mixture was briefly vortexed and further incubated for the desired amount of time followed by addition of N-acetly cysteine (10 μL of a 100 mM solution in water, 1 μmol, 100 eq) and further incubation for 15 minutes to quench unreacted maleimide. All conjugation reactions were performed at room temperature (22° C.) under ambient atmosphere. Note that 2 eq x-maleimide-PEG-biotin relative to mAb=1 eq x-maleimide-PEG-biotin relative to free cysteine contained in the mAb. This general procedure was modified as needed to achieve desired reaction stoichiometry (i.e. different maleimide:mAb feeds).
ADC samples were analyzed using an Agilent 6520B Q-TOF mass spectrometer equipped with a RP-HPLC column (Agilent Poroshell 300SB-C3; 5 um, 2.1 mm×75 mm; Part#660750-909). High-performance liquid chromatography (HPLC) parameters were as follows: flow rate, 0.4 ml/min; mobile phase A was 0.1% (v/v) formic acid in HPLC-grade H2O, and mobile phase B was 0.1% (v/v) formic acid in acetonitrile. The column was equilibrated in 90% A/10% B, which was also used to desalt the ADC samples, followed by elution in 40% A/60% B. Mass spec data were collected for 100-3000 m/z, positive polarity, a gas temperature of 350° C., a nebulizer pressure of 48 lb/in^2, and a capillary voltage of 5,000 V. Data were analyzed using vendor-supplied (Agilent v.B.04.00) MassHunter Qualitative Analysis software and peak intensities from deconvoluted spectra were used to derive the relative proportion of reactants and products; and reaction kinetics.
Half-lives were calculated from the derived rate constants using Equation 4 for pseudo-first order reactions (hydrolysis and deconjugation) and Equation 5 for second-order reactions (conjugation): […]
Conjugation data were analyzed in units of molar concentration to determine kinetic constants. Second order rate constants were determined from the slopes of curves generated from plotting 1/[SH] versus time and linear regression analysis.

Series [4] is described as follows: Maleimide hydrolysis kinetics (pre-incubation in buffer, then reaction with T289C mAb). Type of series: physicochemical. Particulars: for half-life at 1 mM: sodium phosphate buffer, read-out: Hydrolysis T1/2 (maleimide) (converted). The method, then:
x-Maleimide-PEG-biotins were pre-incubated in buffer solutions of different pH to assess their stability and thiol conjugation efficiency over time. This assay indirectly monitors maleimide hydrolysis because hydrolyzed maleimides are not reactive towards thiols. Antibody bearing the T289C FC mutation was reduced and oxidized as described above and adjusted to 1.5 mg/mL in PBS containing 50 mM sodium phosphate pH 7.4. Maleimide solutions were prepared in buffer (100 mM sodium phosphate pH 5.5, 7.4, 8.6) by combining 20 μL x-maleimide-PEG-biotin solution (10 mM solution in DMAc) with 180 μL buffer at the desired pH (final x-maleimide-PEG-biotin concentration=1 mM) and incubated at 22° C. for determined time intervals prior to reaction with mAb. For conjugation reactions 267 μL mAb (1.5 mg/mL, 2.7 nmol, 1 eq) was combined with 5.3 μL buffer-incubated x-maleimide-PEG-biotin solution (5.4 nmol, 2 eq). […] The conjugation reaction proceeded at 22° C. for 1.5 hr at pH 7.4. After reaction samples were reduced with DTT at room temperature for 5 min and analyzed by mass spectrometry. Percent conjugation was calculated using equation 1.
Maleimide hydrolysis data were also analyzed in units of molar concentration to determine kinetic constants. Pseudo 1st order rate constants were determined from the slopes of curves generated from plotting ln [maleimide] versus time and linear regression analysis.

Series [5] is described as follows: Stability of mAb-biotin conjugates in the presence of free thiol (BME) after mild hydrolysis. The format is physicochemical. As to conditions: pH 7.2, 37° C.
Procedure: Biotin-mAb conjugates were incubated in aqueous buffer containing β-mercaptoethanol (BME) to challenge the thiosuccinimide linkage against deconjugation. In this experiment, thiosuccinimide conjugates were subjected to a brief incubation at mildly basic conditions to facilitate thiosuccinimide hydrolysis before the stability challenge. x-Maleimide-PEG-biotins were conjugated to mAb containing the T289C mutation as described above with minor modification. Conjugation reactions were performed at 1 equivalent x-PEG-maleimide:thiol for 15 min at 22° C. followed quenching with N-acetyl cysteine (100 eq rel. to mAb) and further reaction for 5 minutes. Reaction mixtures were adjusted to pH 8.6 by addition of 10% v/v sodium phosphate (1M, dibasic) and then incubated at 37° C. for 1 hr. Reactions were then dialyzed against PBS (pH 7.2) containing 0.5 mM EDTA for 24 hr at 4° C. After dialysis, mAb concentrations were confirmed by A280 measurement (NanoDrop) and samples were diluted to 0.2 mg/mL (1.33 μM mAb) with 1×PBS pH 7.2 containing 0.5 mM EDTA. For BME-containing samples, BME was added to a final concentration of 1% v/v (143 mM). […] Aliquots were removed at various time points, sterile filtered, reduced with DTT and then analyzed by LC/MS. Percent conjugated mAb and thiosuccinimide hydrolysis was determined from peak heights of mass spectra using Equation 1 and Equation 2, respectively. […]
A short description of series [6]: BME challenge assay: sensitivity of PEG-biotin T289C mAb conjugates to thiol exchange in buffer containing thiols. Type of series: physicochemical. Particulars: pH 7.2, 37° C. How it is done: Biotin-mAb conjugates were incubated in aqueous buffer containing β-mercaptoethanol (BME) to challenge the thiosuccinimide linkage against deconjugation. x-Maleimide-PEG-biotins were conjugated to mAb containing the T289C mutation as described above with minor modification. Conjugation reactions were performed at 1 equivalent x-PEG-maleimide:thiol for 15 min at 22° C. followed immediately by dilution to 0.2 mg/mL (1.33 μM mAb) with 1×PBS pH 7.2 containing 0.5 mM EDTA. The N-acetyl cysteine quenching step was omitted. For BME-containing samples, BME was added to a final concentration of 1% v/v (143 mM). Samples were further incubated at 37° C. under ambient atmosphere without stirring. Aliquots were removed at various time points, sterile filtered, reduced with DTT and then analyzed by LC/MS. Percent conjugated mAb and thiosuccinimide hydrolysis were determined from peak heights of mass spectra using Equation 1 and Equation 2, respectively. Deconjugated mAb and thiosuccinimide hydrolysis data were plotted as ln [concentration] vs. time (s) to obtain the pseudo-first order rate constants from the slope of the bestfit line.

Series [7] in a line: Reactivity of mAb-BCN conjugate with AC4GlcNAz after storage. The format is physicochemical. The method, then: N-phenyl-maleimide-PEG-BCN-mAb conjugate (100 μL of 1.3, mg/mL solution in PBS with 0.5 mM EDTA, 0.87 nmol) was combined with AC4GlcNAz (1 μL of 500 mM stock in DMSO, 500 nmol). The reaction solution was incubated at room temperature without stirring for 1 hr at 22° C. For long-term reactivity studies, mAb-BCN conjugate was stored at 4° C. in PBS with 0.5 mM EDTA, pH 7.2 and aliquots were removed and reacted with AC4GlcNAz as described above. Conjugates were analyzed by reduced glycosylated mass spectrometry and conjugation efficiency was determined using equation 1.

Series [8] in a line: Thiosuccinimide hydrolysis kinetics for PEG-BCN conjugates. The format is physicochemical. As to conditions: mAb-PEG-BCN conjugates at T289C, pH 7.2, 22° C. How it is done:
x-Maleimide-PEG-BCN-mAb conjugates were incubated in buffer solutions and monitored by LC/MS over time to observe thiosuccinimide hydrolysis. Conjugated T289C mAbs were diluted to 0.22 mg/mL with 1×PBS containing 0.5 mM EDTA, pH 7.2 and then dithiothreitol was added (0.5 M stock in water) to achieve a final concentration of 42 mM. Samples were placed into the LC/MS autosampler at 22° C. and injected periodically. Thiosuccinimide hydrolysis was confirmed by addition of 18 amu to the mAb conjugate peak in the mass spectrum. Semi-quantitative analysis of hydrolysis was performed using peak intensities in deconvoluted mass spectra and equation 3, which includes background subtraction using the T=0 measurement. Data was then converted into loss of thiosuccinimide (M) over time and plotted as ln [thiosuccinimide] vs seconds. The slope of the best fit line yielded the pseudo first-order rate constant for thiosuccinimide hydrolysis.

Where two headings read alike, the source gives them in different places.

On to `O=C1C=CC(=O)N1c1ccccc1` [N-phenyl maleimide], for which, in [1] (pH 7.6, 25° C.), the “kobs, hydrolysis” value is 7e-05 s⁻¹.

As for `O=C1C=CC(=O)N1` [maleimide], the “kobs, hydrolysis” value in series [1] (pH 8.38, 30° C.) was 0.000151 s⁻¹.

`CCN1C(=O)C=CC1=O` [N-ethyl maleimide]: in series [2], the “k2, reaction with β-mercaptoethanol” value is 710 M⁻¹ s⁻¹. In series [3], the “k2, reaction with cysteine” value was 1620 M⁻¹ s⁻¹.

With “2-fluoro-5-maleimidophenyl-PEG7-biotin [F-phenyl maleimide-PEG-biotin]”, in the series on T289C mAb (pH 8.6), the “thiol conjugation is complete in” value was found to be 15 s.

Consider `O=C(CCCCC1SCC2NC(=O)NC21)NCCOCCOCCOCCOCCOCCOCCOCCNC(=O)c1cc(N2C(=O)C=CC2=O)ccc1F` (centres unmarked) [F-phenyl maleimide-PEG-biotin, 2-fluoro-5-maleimidophenyl-PEG7-biotin], for which the “Psuedo first order rate constant (kobs), maleimide hydrolysis” value in series [4] (pH 7.4, 22° C.) was 0.00017 s⁻¹; in series [4] (pH 8.6, 22° C.), 0.0019 s⁻¹. Also, the half-life at 1 mM is 1.1 h in series [4] (pH 7.4, 22° C.) and 0.1 h in series [4] (pH 8.6, 22° C.). The “Second order rate constant (k2)” value is 55.4 M⁻¹ s⁻¹ with T289C mAb (pH 5.5, 22° C.); 4500 M⁻¹ s⁻¹ in the series on T289C mAb (pH 7.4, 22° C.); around 39000 M⁻¹ s⁻¹ with T289C mAb (pH 8.6, 22° C.).

As to N-fluorophenyl thiosuccinimide, the results for the “Max deconjugation + BME” value in [5] (1% v/v BME) and in [6] (1% v/v BME) were “None” and 10%, respectively. In addition, the “Max deconjugation − BME” value in [5] (without BME) and in series [6] (without BME) was “None” in each case.

For the compound Phenyl thiosuccinimide, the “Azide conjugation (BCN reactivity)” value in series [7] (1 day storage at 4° C.), in [7] (4 days storage at 4° C.), in [7] (7 days storage at 4° C.), in series [7] (10 days storage at 4° C.), in series [7] (15 days storage at 4° C.) and in series [7] (21 days storage at 4° C.) was “quantitative” each time. Further, the “time without loss of BCN reactivity” value in [7] (after conjugation and storage at 4° C.) is above 21 days. For the same compound, in [8], the “Psuedo first order rate constant (kobs), thiosuccinimide hydrolysis” value turned out to be 1.9e-05 s⁻¹.

On to `O=C(CCCCC1SCC2NC(=O)NC21)NCCOCCOCCOCCOCCOCCOCCOCCNC(=O)Cc1ccc(N2C(=O)C=CC2=O)cc1` (centres unmarked) [Phenyl maleimide-PEG-biotin, maleimidophenylacetyl-PEG7-biotin], for which the “Psuedo first order rate constant (kobs), maleimide hydrolysis” value in [4] (pH 7.4, 22° C.) came out at 8.5e-05 s⁻¹; in series [4] (pH 8.6, 22° C.), 0.00076 s⁻¹. In addition, the half-life at 1 mM in [4] (pH 7.4, 22° C.) was 2.3 h; in series [4] (pH 8.6, 22° C.) it was 0.3 h. Also, the “Second order rate constant (k2)” value in the series with T289C mAb (pH 5.5, 22° C.) is 23.8 M⁻¹ s⁻¹; in the series on T289C mAb (pH 7.4, 22° C.), 1300 M⁻¹ s⁻¹; in the series with T289C mAb (pH 8.6, 22° C.), around 34000 M⁻¹ s⁻¹.

`O=C(CCCCC1SCC2NC(=O)NC21)NCCOCCOCCOCCOCCOCCOCCOCCNC(=O)CCN1C(=O)C=CC1=O` (centres unmarked) [Alkyl maleimide-PEG-biotin, maleimidoproprionyl-PEG7-biotin, reference compound]: the “Psuedo first order rate constant (kobs), maleimide hydrolysis” value in series [4] (pH 7.4, 22° C.) came out at 2.3e-05 s⁻¹; in series [4] (pH 8.6, 22° C.), 0.0002 s⁻¹. For the same compound, the half-life at 1 mM in series [4] (pH 7.4, 22° C.) is 7.7 h; in series [4] (pH 8.6, 22° C.), 1 h. Moreover, the “Second order rate constant (k2)” value is 13 M⁻¹ s⁻¹ in the series on T289C mAb (pH 5.5, 22° C.); 500 M⁻¹ s⁻¹ with T289C mAb (pH 7.4, 22° C.); around 28000 M⁻¹ s⁻¹ with T289C mAb (pH 8.6, 22° C.).
